Data taken from ChEMBL document CHEMBL4673338, “ROCK inhibitors 4: Structure-activity relationship studies of 7-azaindole-based rho kinase (ROCK) inhibitors” (Bioorg Med Chem Lett, 2021).

Tests used:
[1] = biological target: Rho-associated protein kinase 1 (Homo sapiens, UniProt Q13464); assay: Inhibition of ROCK1 (unknown origin)
[2] = organism: Homo sapiens; assay: Selectivity index, ratio of Ki for PKA (unknown origin) to Ki for ROCK1 (unknown origin)
[3] = tested on: THP-1; assay: Antimigratory activity against human THP-1 cells; format: functional, cell-based
[4] = biological target: Cytochrome P450 3A4 (Homo sapiens, UniProt P08684); assay: Inhibition of CYP3A4 (unknown origin); format: ADME
Chain of Cytochrome P450 3A4 (P08684 whole entry): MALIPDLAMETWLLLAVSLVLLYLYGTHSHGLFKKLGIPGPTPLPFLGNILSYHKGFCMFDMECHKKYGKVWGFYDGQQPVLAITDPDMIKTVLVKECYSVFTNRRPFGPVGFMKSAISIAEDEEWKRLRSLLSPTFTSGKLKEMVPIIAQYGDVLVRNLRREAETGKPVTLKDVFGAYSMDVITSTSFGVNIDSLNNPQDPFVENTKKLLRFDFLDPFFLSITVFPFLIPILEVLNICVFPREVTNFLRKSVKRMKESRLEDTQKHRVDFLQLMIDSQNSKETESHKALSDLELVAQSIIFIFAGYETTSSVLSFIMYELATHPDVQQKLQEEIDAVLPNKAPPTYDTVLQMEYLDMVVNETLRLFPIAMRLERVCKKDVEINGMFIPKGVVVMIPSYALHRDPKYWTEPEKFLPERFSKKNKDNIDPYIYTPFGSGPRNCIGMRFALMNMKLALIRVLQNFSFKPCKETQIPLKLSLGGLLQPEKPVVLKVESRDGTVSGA

[5] = Cmax in rat at 3 mg/kg, po; format: ADME, organism-based; parameters: route oral, dose 3 mg/kg; details: in vivo
[6] = Intrinsic clearance in rat Hepatocyte assessed per million cells; format: ADME, tissue-based; details: hepatocytes, read-out: CLH
[7] = AUC(0 to infinity) in rat at 1 mg/kg, iv; format: ADME, organism-based; parameters: route intravenous, time infinity, dose 1 mg/kg; details: in vivo
[8] = Intrinsic clearance in human Hepatocyte assessed per million cells; format: ADME, tissue-based; details: hepatocytes, read-out: CLH
[9] = Half life in rat at 1 mg/kg, iv; format: ADME, organism-based; details: in vivo
[10] = Oral bioavailability in rat at 3 mg/kg; format: ADME, organism-based; details: in vivo
[11] = AUC(0 to infinity) in rat at 3 mg/kg, po; format: ADME, organism-based; parameters: route oral, time infinity, dose 3 mg/kg; details: in vivo
[12] = Volume of distribution at steady state in rat at 1 mg/kg, iv; format: ADME, organism-based; details: in vivo, read-out: Vdss
[13] = Clearance in rat at 1 mg/kg, iv; format: ADME, organism-based; details: in vivo
[14] = biological target: Voltage-gated inwardly rectifying potassium channel KCNH2 (Homo sapiens, UniProt Q12809); assay: Inhibition of human ERG
Chain of Voltage-gated inwardly rectifying potassium channel KCNH2 (Q12809 whole entry): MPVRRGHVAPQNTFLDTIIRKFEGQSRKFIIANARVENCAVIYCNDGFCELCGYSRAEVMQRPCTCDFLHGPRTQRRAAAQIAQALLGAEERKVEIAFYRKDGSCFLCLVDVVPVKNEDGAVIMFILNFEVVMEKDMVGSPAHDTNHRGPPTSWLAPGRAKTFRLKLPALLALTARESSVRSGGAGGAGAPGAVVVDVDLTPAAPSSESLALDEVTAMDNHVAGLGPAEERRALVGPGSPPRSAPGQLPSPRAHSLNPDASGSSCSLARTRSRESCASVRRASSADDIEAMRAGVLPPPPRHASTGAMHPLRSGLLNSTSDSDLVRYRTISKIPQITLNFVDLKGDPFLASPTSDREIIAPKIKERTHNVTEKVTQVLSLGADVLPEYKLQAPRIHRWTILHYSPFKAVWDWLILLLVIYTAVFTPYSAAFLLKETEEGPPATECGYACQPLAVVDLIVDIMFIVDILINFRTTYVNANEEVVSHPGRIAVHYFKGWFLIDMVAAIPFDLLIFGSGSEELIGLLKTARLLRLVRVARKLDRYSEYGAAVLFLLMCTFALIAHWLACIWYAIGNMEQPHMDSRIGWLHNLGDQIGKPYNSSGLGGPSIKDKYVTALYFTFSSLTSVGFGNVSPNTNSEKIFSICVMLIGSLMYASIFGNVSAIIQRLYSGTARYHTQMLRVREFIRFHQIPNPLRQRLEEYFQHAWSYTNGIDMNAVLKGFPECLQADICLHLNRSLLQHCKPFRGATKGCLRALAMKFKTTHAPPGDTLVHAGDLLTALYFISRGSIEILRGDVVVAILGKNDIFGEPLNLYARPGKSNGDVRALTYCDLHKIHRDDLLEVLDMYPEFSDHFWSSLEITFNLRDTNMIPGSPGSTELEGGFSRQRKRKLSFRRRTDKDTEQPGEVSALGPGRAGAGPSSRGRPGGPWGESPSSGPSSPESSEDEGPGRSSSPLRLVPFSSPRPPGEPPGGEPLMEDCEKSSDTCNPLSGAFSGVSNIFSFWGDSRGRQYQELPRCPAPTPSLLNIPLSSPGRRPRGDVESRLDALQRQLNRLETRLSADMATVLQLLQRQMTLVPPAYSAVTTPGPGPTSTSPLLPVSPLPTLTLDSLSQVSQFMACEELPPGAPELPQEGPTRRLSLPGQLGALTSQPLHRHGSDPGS

Chain of Rho-associated protein kinase 1 (Q13464 whole entry): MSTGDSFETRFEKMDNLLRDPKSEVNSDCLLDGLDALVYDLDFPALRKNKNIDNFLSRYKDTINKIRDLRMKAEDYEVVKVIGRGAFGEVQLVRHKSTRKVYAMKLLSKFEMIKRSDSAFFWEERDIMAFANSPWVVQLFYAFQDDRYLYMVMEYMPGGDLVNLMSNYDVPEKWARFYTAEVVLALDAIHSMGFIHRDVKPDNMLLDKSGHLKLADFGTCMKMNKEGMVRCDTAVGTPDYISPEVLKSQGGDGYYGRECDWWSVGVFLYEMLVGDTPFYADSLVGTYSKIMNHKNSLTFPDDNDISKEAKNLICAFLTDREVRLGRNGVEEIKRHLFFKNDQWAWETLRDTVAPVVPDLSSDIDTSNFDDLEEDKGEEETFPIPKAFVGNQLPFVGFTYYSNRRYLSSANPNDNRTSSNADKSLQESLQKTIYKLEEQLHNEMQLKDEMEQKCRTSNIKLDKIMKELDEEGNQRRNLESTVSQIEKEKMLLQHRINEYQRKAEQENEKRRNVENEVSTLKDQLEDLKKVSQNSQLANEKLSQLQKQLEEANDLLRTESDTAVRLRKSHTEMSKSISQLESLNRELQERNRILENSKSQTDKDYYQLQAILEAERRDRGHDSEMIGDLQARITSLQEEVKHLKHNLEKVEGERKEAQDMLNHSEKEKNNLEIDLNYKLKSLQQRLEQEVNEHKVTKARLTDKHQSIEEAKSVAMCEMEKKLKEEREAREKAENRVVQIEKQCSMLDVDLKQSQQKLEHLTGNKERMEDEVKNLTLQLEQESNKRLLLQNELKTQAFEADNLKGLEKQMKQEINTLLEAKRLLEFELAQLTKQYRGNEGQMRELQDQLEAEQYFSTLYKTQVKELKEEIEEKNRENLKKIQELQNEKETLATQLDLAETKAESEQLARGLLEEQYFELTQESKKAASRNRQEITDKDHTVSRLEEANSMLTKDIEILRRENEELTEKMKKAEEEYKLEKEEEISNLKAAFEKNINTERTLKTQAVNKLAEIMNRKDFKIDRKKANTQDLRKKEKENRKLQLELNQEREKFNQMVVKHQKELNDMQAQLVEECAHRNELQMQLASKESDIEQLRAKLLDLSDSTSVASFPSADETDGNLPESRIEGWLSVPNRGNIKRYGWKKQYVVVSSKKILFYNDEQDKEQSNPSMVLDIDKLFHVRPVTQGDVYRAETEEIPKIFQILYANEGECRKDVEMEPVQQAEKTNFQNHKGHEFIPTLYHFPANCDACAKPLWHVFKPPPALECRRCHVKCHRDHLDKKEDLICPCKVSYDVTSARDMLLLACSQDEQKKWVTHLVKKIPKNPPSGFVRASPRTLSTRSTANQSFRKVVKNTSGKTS

**Q.** Which Ki [1] does the source give for CS(=O)(=O)Nc1cccc(CC(=O)Nc2cc(-c3c[nH]c4ncccc34)ncn2)c1 here?
**A.** Its Ki is 7 nM.

**Q.** What about the Ratio Ki [2] of the same compound?
**A.** The Ratio Ki was 20.

**Q.** What about the IC50 [3] of the same compound?
**A.** The IC50 was 820 nM.

**Q.** What about the IC50 [4] of the same compound?
**A.** Its IC50 is 100000 nM.

**Q.** Which Ki [1] does the source give for CS(=O)(=O)Nc1cccc(CC(=O)Nc2nc(-c3c[nH]c4ncc(O)cc34)cs2)c1 here?
**A.** Its Ki is 7 nM.

**Q.** And the Ratio Ki [2]?
**A.** The Ratio Ki was 107.

**Q.** And the IC50 [3]?
**A.** Its IC50 is 1300 nM.

**Q.** What about the IC50 [4] of the same compound?
**A.** Its IC50 is 5000 nM.

**Q.** What does the source list for CS(=O)(=O)Nc1cccc(CC(=O)Nc2csc(-c3c[nH]c4ncccc34)n2)c1?
**A.** Ki [1]: 10 nM; Ratio Ki [2]: 31; IC50 [3]: 370 nM; IC50 [4]: 12000 nM

**Q.** For CS(=O)(=O)Nc1cccc(CC(=O)Nc2nc(-c3c[nH]c4ncccc34)cs2)c1, which Cmax [5] is on record?
**A.** The Cmax was 900 ng/mL.

**Q.** And the hepatocyte CLint [6]?
**A.** The hepatocyte CLint was 6.7 µL/min/1e6 cells.

**Q.** And the IC50 [3]?
**A.** Its IC50 is 20 nM.

**Q.** And the AUC [7]?
**A.** Its AUC is 2400 ng·h/mL.

**Q.** What about the hepatocyte CLint [8] of the same compound?
**A.** Its hepatocyte CLint is 4 µL/min/1e6 cells.

**Q.** What about the half-life [9] of the same compound?
**A.** Its half-life is 2 h.

**Q.** What about the F ([10]; 3 mg/kg) of the same compound?
**A.** The F was 38%.

**Q.** And the AUC [11]?
**A.** The AUC was 9200 ng·h/mL.

**Q.** And the Vd [12]?
**A.** The Vd was 0.6 L/kg.

**Q.** What about the clearance [13] of the same compound?
**A.** The clearance was 7 mL/min/kg.

**Q.** For CS(=O)(=O)Nc1cccc(CC(=O)Nc2nc(-c3c[nH]c4ncc(Cl)cc34)cs2)c1, which Ki [1] is on record?
**A.** Its Ki is 11 nM.

**Q.** And the Ratio Ki [2]?
**A.** The Ratio Ki was 46.

**Q.** What about the IC50 [3] of the same compound?
**A.** Its IC50 is 310 nM.

**Q.** And the IC50 [4]?
**A.** The IC50 was 8000 nM.

**Q.** With CS(=O)(=O)Nc1cccc(CC(=O)Nc2ccc(-c3c[nH]c4ncccc34)s2)c1 as the compound, how does the Ki [1] read?
**A.** The Ki was 8 nM.

**Q.** What about the Ratio Ki [2] of the same compound?
**A.** The Ratio Ki was 39.

**Q.** And the IC50 [3]?
**A.** The IC50 was 340 nM.

**Q.** And the IC50 [4]?
**A.** The IC50 was 6000 nM.

**Q.** Which Ki [1] does the source give for CS(=O)(=O)Nc1cccc(CC(=O)Nc2nc(-c3c[nH]c4nccc(F)c34)cs2)c1 here?
**A.** The Ki was 4 nM.

**Q.** What about the Ratio Ki [2] of the same compound?
**A.** The Ratio Ki was 31.

**Q.** And the IC50 [3]?
**A.** The IC50 was 80 nM.

**Q.** What about the IC50 [4] of the same compound?
**A.** The IC50 was 36000 nM.

**Q.** Which results are given for CN1CCN(CCCOc2cccc(CC(=O)Nc3nc(-c4c[nH]c5ncccc45)cs3)c2)CC1?
**A.** hepatocyte CLint [6]: 26.8 µL/min/1e6 cells; AUC(0-inf) [7]: 150 ng·h/mL; hepatocyte CLint [8]: 7.5 µL/min/1e6 cells; half-life [9]: 0.71 h; Vd [12]: 10 L/kg; clearance [13]: 114 mL/min/kg

**Q.** Which Ki [1] does the source give for CN1CCN(CCOc2cccc(CC(=O)Nc3nc(-c4c[nH]c5ncc(F)cc45)cs3)c2)CC1 here?
**A.** Its Ki is 3 nM.

**Q.** What about the Ratio Ki [2] of the same compound?
**A.** Its Ratio Ki is 320.

**Q.** And the IC50 [3]?
**A.** The IC50 was 400 nM.

**Q.** What about the IC50 [4] of the same compound?
**A.** The IC50 was 27000 nM.

**Q.** For CS(=O)(=O)Nc1cccc(CC(=O)Nc2nnc(-c3c[nH]c4ncccc34)s2)c1, which Ki [1] is on record?
**A.** The Ki was 7 nM.

**Q.** What about the Ratio Ki [2] of the same compound?
**A.** Its Ratio Ki is 34.

**Q.** And the IC50 [3]?
**A.** The IC50 was 1520 nM.

**Q.** What about the IC50 [4] of the same compound?
**A.** Its IC50 is 100000 nM.

**Q.** What does the source list for CS(=O)(=O)Nc1cccc(CC(=O)Nc2nc(-c3c[nH]c4ncc(Br)cc34)cs2)c1?
**A.** Ki [1]: 22 nM; Ratio Ki [2]: 32; IC50 [3]: 10000 nM; IC50 [4]: 35000 nM

**Q.** With O=C(Cc1cccc(OCCCC2CCNCC2)c1)Nc1nc(-c2c[nH]c3nccc(F)c23)cs1 as the compound, how does the Ki [1] read?
**A.** Its Ki is 3 nM.

**Q.** What about the Ratio Ki [2] of the same compound?
**A.** The Ratio Ki was 143.

**Q.** And the IC50 [3]?
**A.** The IC50 was 50 nM.

**Q.** And the AUC(0-inf) [7]?
**A.** Its AUC(0-inf) is 250 ng·h/mL.

**Q.** What about the IC50 [14] of the same compound?
**A.** Its IC50 is over 30000 nM.

**Q.** And the hepatocyte CLint [8]?
**A.** The hepatocyte CLint was 5.7 µL/min/1e6 cells.

**Q.** And the half-life [9]?
**A.** Its half-life is 5.5 h.

**Q.** What about the Vd [12] of the same compound?
**A.** Its Vd is 19 L/kg.

**Q.** What about the clearance [13] of the same compound?
**A.** The clearance was 68 mL/min/kg.

**Q.** And the IC50 [4]?
**A.** The IC50 was 100000 nM.

**Q.** Which Ki [1] does the source give for CN1CCN(CCCOc2cccc(CC(=O)Nc3nc(-c4c[nH]c5ncc(F)cc45)cs3)c2)CC1 here?
**A.** The Ki was 5 nM.

**Q.** What about the Ratio Ki [2] of the same compound?
**A.** The Ratio Ki was 240.

**Q.** What about the IC50 [3] of the same compound?
**A.** Its IC50 is 260 nM.

**Q.** What does the source list for CS(=O)(=O)Nc1cccc(CC(=O)Nc2nc(-c3c[nH]c4nccc(Cl)c34)cs2)c1?
**A.** Ki [1]: 92 nM; Ratio Ki [2]: 2; IC50 [4]: 8000 nM

**Q.** For Cc1sc(NC(=O)Cc2cccc(NS(C)(=O)=O)c2)nc1-c1c[nH]c2ncccc12, which Ki [1] is on record?
**A.** The Ki was 52 nM.

**Q.** What about the Ratio Ki [2] of the same compound?
**A.** The Ratio Ki was 31.

**Q.** What about the IC50 [4] of the same compound?
**A.** The IC50 was 5000 nM.

**Q.** What does the source list for CS(=O)(=O)Nc1cccc(CC(=O)Nc2nccc(-c3c[nH]c4ncccc34)n2)c1?
**A.** Ki [1]: 48 nM; Ratio Ki [2]: 23; IC50 [3]: 8000 nM; IC50 [4]: 48000 nM

**Q.** For CS(=O)(=O)Nc1cccc(CC(=O)Nc2cc(-c3c[nH]c4ncccc34)cs2)c1, which Ki [1] is on record?
**A.** The Ki was 100 nM.

**Q.** What about the Ratio Ki [2] of the same compound?
**A.** Its Ratio Ki is 1.

**Q.** What about the IC50 [4] of the same compound?
**A.** The IC50 was 5000 nM.

**Q.** What does the source list for O=C(Cc1cccc(OCCCC2CCNCC2)c1)Nc1nc(-c2c[nH]c3ncc(F)cc23)cs1?
**A.** Ki [1]: 1 nM; Ratio Ki [2]: > 480; hepatocyte CLint [6]: 20.5 µL/min/1e6 cells; IC50 [3]: 140 nM; AUC(0-inf) [7]: 250 ng·h/mL; IC50 [14]: > 30000 nM; hepatocyte CLint [8]: 6.3 µL/min/1e6 cells; half-life [9]: 3.8 h; Vd [12]: 8.7 L/kg; clearance [13]: 66 mL/min/kg

**Q.** For CS(=O)(=O)Nc1cccc(CC(=O)Nc2nc(-c3c[nH]c4ncc(F)cc34)cs2)c1, which Ki [1] is on record?
**A.** Its Ki is 3 nM.

**Q.** And the Ratio Ki [2]?
**A.** The Ratio Ki was 53.

**Q.** And the hepatocyte CLint [6]?
**A.** Its hepatocyte CLint is 11.7 µL/min/1e6 cells.

**Q.** And the IC50 [3]?
**A.** Its IC50 is 70 nM.

**Q.** And the IC50 [14]?
**A.** Its IC50 is over 30000 nM.

**Q.** What about the hepatocyte CLint [8] of the same compound?
**A.** Its hepatocyte CLint is 4.3 µL/min/1e6 cells.

**Q.** What about the IC50 [4] of the same compound?
**A.** The IC50 was 6000 nM.

**Q.** Which results are given for CN1CCN(CCCOc2cccc(CC(=O)Nc3nc(-c4c[nH]c5nccc(F)c45)cs3)c2)CC1?
**A.** Ki [1]: 10 nM; Ratio Ki [2]: 180; IC50 [3]: 400 nM

**Q.** For CN1CCN(CCOc2cccc(CC(=O)Nc3nc(-c4c[nH]c5ncccc45)cs3)c2)CC1, which Cmax [5] is on record?
**A.** The Cmax was 60 ng/mL.

**Q.** And the hepatocyte CLint [6]?
**A.** The hepatocyte CLint was 32 µL/min/1e6 cells.

**Q.** And the IC50 [3]?
**A.** The IC50 was 20 nM.

**Q.** What about the AUC(0-inf) [7] of the same compound?
**A.** The AUC(0-inf) was 240 ng·h/mL.

**Q.** What about the hepatocyte CLint [8] of the same compound?
**A.** The hepatocyte CLint was 3.3 µL/min/1e6 cells.

**Q.** What about the half-life [9] of the same compound?
**A.** The half-life was 3.2 h.

**Q.** What about the bioavailability [10] of the same compound?
**A.** The bioavailability was 46%.

**Q.** What about the AUC(0-inf) [11] of the same compound?
**A.** Its AUC(0-inf) is 600 ng·h/mL.

**Q.** And the Vd [12]?
**A.** The Vd was 14 L/kg.

**Q.** And the clearance [13]?
**A.** The clearance was 71 mL/min/kg.

**Q.** With O=C(Cc1cccc(OCCCC2CCNCC2)c1)Nc1nc(-c2c[nH]c3ncccc23)cs1 as the compound, how does the IC50 [3] read?
**A.** Its IC50 is 20 nM.

**Q.** And the AUC(0-inf) [7]?
**A.** The AUC(0-inf) was 130 ng·h/mL.

**Q.** What about the half-life [9] of the same compound?
**A.** The half-life was 5.4 h.

**Q.** And the Vd [12]?
**A.** The Vd was 24 L/kg.

**Q.** And the clearance [13]?
**A.** Its clearance is 128 mL/min/kg.
